Legend:
Pityrosporum ovale [1] = assay: Agar Dilution Method 1, Pityrosporum ovale; assay type: cell-based; set-up: key: +++ = Maximum Fungal Growth; ++ = Moderate Fungal Growth; + = Minimum Fungal Growth; +/− = Very little Fungal Growth; − = No Fungal Growth
Procedure: (§1) Sabourand Dextrose Agar was prepared according the manufacturers instructions and 5 ml was dispensed in 100 X 25 mm tubes and autoclaved for 121° C. for 15 minutes. To each tube containing 5 ml of liquid agar at 45° C., different concentrations of test antifungal compound in DMSO was added, subsequently each was solidified in […], and inoculated with fungal cultures. After incubation for 10-12 days at 25° C. to 28° C., the growth of the fungus was recorded every second day. The Minimum Inhibitory Concentration (MIC) was determined by the tube containing the lowest concentration of test compound which inhibited fungal growth. See, Table 1.

Pityrosporum ovale [2] = assay: Anti-Fungal Activity Against Pityrosporum ovale; assay type: cell-based; details: 4 mg/ml of test compound; 37° C. for 18 to 24 hours
Procedure: Betulin and its derivatives have low solubility in water, accordingly the stock solution of the test compounds were prepared in DMSO. The stock solutions for griseofulvin and nystatin were prepared in DMSO at a concentration of 10,000 μg/ml. The yeast Pityrosporum ovale (ATCC Rockville, Md.) was grown in Pityrosporum medium (ATCC Rockville, Md.) at 37° C. for 2-3 days. 5 ml of the medium was dispensed in 100×25 mm tubes and autoclaved at 121° C. for 15 minutes. To each tube at 45° C., 4 mg/ml of test compound was added and solidified in […], subsequently, each was inoculated with P. ovale and incubated at 37° C. for 18 to 24 hours.

Microsporum canis = assay: Agar Dilution Method 1, Microsporum canis; assay type: cell-based; set-up: key: +++ = Maximum Fungal Growth; ++ = Moderate Fungal Growth; + = Minimum Fungal Growth; +/− = Very little Fungal Growth; − = No Fungal Growth
Procedure: as §1

Epidermophyton = assay: Agar Dilution Method 1, Epidermophyton; assay type: cell-based; set-up: key: +++ = Maximum Fungal Growth; ++ = Moderate Fungal Growth; + = Minimum Fungal Growth; +/− = Very little Fungal Growth; − = No Fungal Growth
Procedure: as §1

M. audouinii = assay: Agar Dilution Method 2, M. audouinii; assay type: cell-based; details: 12th day of inoculation
Procedure: (§2) Sabourand Dextrose Agar was prepared according the manufacturers instructions and 5 ml was dispensed in 100×25 mm tubes and autoclaved for 121° C. for 15 minutes. To each tube containing 5 ml of liquid agar at 45° C., 4 mg/ml of test antifungal compound was added, subsequently each was solidified in […], and inoculated with fungal cultures. After incubation for 10-12 days at 25° C. to 28° C., the growth of the fungus was recorded every second day.

T. tonsurans = assay: Agar Dilution Method 2, T. tonsurans; assay type: cell-based; details: 12th day of inoculation
Procedure: as §2

M. canis = assay: Agar Dilution Method 2, M. canis; assay type: cell-based; details: 12th day of inoculation
Procedure: as §2

[3] = cited from earlier work

Compound	growth of P. ovale (Pityrosporum ovale [2])	Fungal Growth Pityrosporum ovale (Pityrosporum ovale [1]; 12.5 μg/ml in DMSO)	Fungal Growth Pityrosporum ovale (Pityrosporum ovale [1]; 25 μg/ml in DMSO)	Fungal Growth Pityrosporum ovale (Pityrosporum ovale [1]; 50 μg/ml in DMSO)	Fungal Growth Pityrosporum ovale (Pityrosporum ovale [1]; 100 μg/ml in DMSO)	Results using the Agar Dilution Method 2 in concentration, M. audouinii (M. audouinii) [µg/mL]	Results using the Agar Dilution Method 2 in concentration, T. tonsurans (T. tonsurans) [µg/mL]	Results using the Agar Dilution Method 2 in concentration, M. canis (M. canis) [µg/mL]	Fungal Growth Microsporum canis (Microsporum canis; 12.5 μg/ml in DMSO)	Fungal Growth Microsporum canis (Microsporum canis; 25 μg/ml in DMSO)	Fungal Growth Microsporum canis (Microsporum canis; 50 μg/ml in DMSO)	Fungal Growth Microsporum canis (Microsporum canis; 100 μg/ml in DMSO)	Fungal Growth Epidermophyton (Epidermophyton; 12.5 μg/ml in DMSO)	Fungal Growth Epidermophyton (Epidermophyton; 25 μg/ml in DMSO)	Fungal Growth Epidermophyton (Epidermophyton; 50 μg/ml in DMSO)	Fungal Growth Epidermophyton (Epidermophyton; 100 μg/ml in DMSO)	other results
CC1(C)CC[C@]23CC[C@]4(C)[C@H](CC[C@@H]5[C@@]6(C)CC[C@H](O)C(C)(C)[C@@H]6CC[C@]54C)[C@H]2[C@H]1OC3 [Allobetulin]	inhibited the growth																Fungal Growth Pityrosporum ovale (Pityrosporum ovale [1]; 9 μg/ml in DMSO): +++; Fungal Growth Pityrosporum ovale (Pityrosporum ovale [1]; 19 μg/ml in DMSO): +++; Fungal Growth Pityrosporum ovale (Pityrosporum ovale [1]; 38 μg/ml in DMSO): ++; Fungal Growth Pityrosporum ovale (Pityrosporum ovale [1]; 75 μg/ml in DMSO): −; Fungal Growth Microsporum canis (Microsporum canis; 9 μg/ml in DMSO): +++; Fungal Growth Microsporum canis (Microsporum canis; 19 μg/ml in DMSO): ++; Fungal Growth Microsporum canis (Microsporum canis; 38 μg/ml in DMSO): ++; Fungal Growth Microsporum canis (Microsporum canis; 75 μg/ml in DMSO): −; Fungal Growth Epidermophyton (Epidermophyton; 9 μg/ml in DMSO): ++; Fungal Growth Epidermophyton (Epidermophyton; 19 μg/ml in DMSO): +; Fungal Growth Epidermophyton (Epidermophyton; 38 μg/ml in DMSO): +; Fungal Growth Epidermophyton (Epidermophyton; 75 μg/ml in DMSO): −
CC1(C)CCC23CCC4(C)C(CCC5C6(C)CCC(OC(=O)CCCC(=O)O)C(C)(C)C6CCC54C)C2C1OC3 (stereo not shown) [Allobetulin 3-glutarate]		+++	+++	++	−	9	25	25	+/−	+/−	−	−	++	+	+	−	
C=C(C)[C@@H]1CC[C@]2(CO)CC[C@]3(C)[C@H](CC[C@@H]4[C@@]5(C)CC[C@H](O)C(C)(C)[C@@H]5CC[C@]43C)[C@@H]12 [Betulin]		+++	+++	++	+/−	25		50	++	+	+/−	−	+	+	−	−	solubility in water [3]: about 0.15 mg/l
C[C@@H]1[C@H](O)[C@@H](C)/C=C/C=C/CC/C=C/C=C/C=C/C=C/C(O[C@H]2O[C@H](C)[C@@H](O)[C@H](N)[C@@H]2O)CC2O[C@](O)(CC(O)C(O)CCC(O)CC(O)CC(O)CC(=O)O[C@H]1C)CC(O)C2C(=O)O (stereo partly shown) [Nystatin, reference compound]	inhibited					<125	250	250									Fungal Growth Pityrosporum ovale (Pityrosporum ovale [1]; 125 μg/ml in DMSO): +; Fungal Growth Pityrosporum ovale (Pityrosporum ovale [1]; 250 μg/ml in DMSO): +/−; Fungal Growth Pityrosporum ovale (Pityrosporum ovale [1]; 500 μg/ml in DMSO): −; Fungal Growth Pityrosporum ovale (Pityrosporum ovale [1]; 1000 μg/ml in DMSO): −; Fungal Growth Microsporum canis (Microsporum canis; 125 μg/ml in DMSO): +; Fungal Growth Microsporum canis (Microsporum canis; 250 μg/ml in DMSO): +/−; Fungal Growth Microsporum canis (Microsporum canis; 500 μg/ml in DMSO): −; Fungal Growth Microsporum canis (Microsporum canis; 1000 μg/ml in DMSO): −; Fungal Growth Epidermophyton (Epidermophyton; 125 μg/ml in DMSO): +/−; Fungal Growth Epidermophyton (Epidermophyton; 250 μg/ml in DMSO): −; Fungal Growth Epidermophyton (Epidermophyton; 500 μg/ml in DMSO): −; Fungal Growth Epidermophyton (Epidermophyton; 1000 μg/ml in DMSO): −
allobetulin L-valine ester	inhibited the growth																
C=C(C)C1CCC2(COC(=O)CCCC(=O)O)CCC3(C)C(CCC4C5(C)CCC(O)C(C)(C)C5CCC43C)C12 (stereo not shown) [betulin 28-glutarate]	inhibited the growth																
C=C(C)[C@@H]1CC[C@]2(COC(=O)CCCC(=O)O)CC[C@]3(C)[C@H](CC[C@@H]4[C@@]5(C)CC[C@H](OC(=O)CCCC(=O)O)C(C)(C)[C@@H]5CC[C@]43C)[C@@H]12 [betulin 3,28-diglutarate]	inhibited the growth																
COC1=CC(=O)C[C@@H](C)[C@]12Oc1c(Cl)c(OC)cc(OC)c1C2=O [Griseofulvin, reference compound]						<125	250	250									Fungal Growth Pityrosporum ovale (Pityrosporum ovale [1]; 125 μg/ml in DMSO): +++; Fungal Growth Pityrosporum ovale (Pityrosporum ovale [1]; 250 μg/ml in DMSO): +++; Fungal Growth Pityrosporum ovale (Pityrosporum ovale [1]; 500 μg/ml in DMSO): ++; Fungal Growth Pityrosporum ovale (Pityrosporum ovale [1]; 1000 μg/ml in DMSO): −; Fungal Growth Microsporum canis (Microsporum canis; 125 μg/ml in DMSO): +/−; Fungal Growth Microsporum canis (Microsporum canis; 250 μg/ml in DMSO): +/−; Fungal Growth Microsporum canis (Microsporum canis; 500 μg/ml in DMSO): −; Fungal Growth Microsporum canis (Microsporum canis; 1000 μg/ml in DMSO): −; Fungal Growth Epidermophyton (Epidermophyton; 125 μg/ml in DMSO): ++; Fungal Growth Epidermophyton (Epidermophyton; 250 μg/ml in DMSO): +; Fungal Growth Epidermophyton (Epidermophyton; 500 μg/ml in DMSO): −; Fungal Growth Epidermophyton (Epidermophyton; 1000 μg/ml in DMSO): −
C=C(C)C1CCC2(COC(=O)c3ccccc3C(=O)O)CCC3(C)C(CCC4C5(C)CCC(O)C(C)(C)C5CCC43C)C12 (stereo not shown) [Betulin 28-phthalate]		+++	+++	++	−	25		50	++	+	−	−	+++	++	+	−	

From US20060003948A1, “Compositions that include a triterpene and a carrier” (priority 2004, published 2006)
